Data on two molecules can be found in publication PMC3216550 (Scientific Reports, 2011).

One data set has as its target T1, paAzoR1 (Pseudomonas aeruginosa, UniProt Q9I5F3).
T1 sequence (Q9I5F3 1-212): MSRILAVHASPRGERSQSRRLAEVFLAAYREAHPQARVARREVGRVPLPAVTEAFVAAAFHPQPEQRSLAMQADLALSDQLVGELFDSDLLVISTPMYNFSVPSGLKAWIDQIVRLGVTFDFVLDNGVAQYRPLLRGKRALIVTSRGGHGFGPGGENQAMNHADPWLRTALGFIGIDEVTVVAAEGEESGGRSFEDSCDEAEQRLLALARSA
The data set is described as follows: X-ray crystal structure, […] Å. It counts as binding. The following applies: complex with nitrofurazone; FMN in active site.

Substrate in the data set “purified protein”: NC(=O)N/N=C/c1ccc([N+](=O)[O-])o1
Briefly: purified protein. The following applies: 750 μM NADPH, 20 mM Tris-HCl pH 8.0, 100 mM NaCl.

As usually defined, the Km is the concentration of substrate that gives half-maximal velocity.

Regarding `Cc1cc2nc3c(=O)[nH]c(=O)nc-3n(C[C@H](O)[C@H](O)[C@H](O)COP(=O)(O)O)c2cc1C` [FMN], at paAzoR1, the “X-ray crystal structure, 2.08 Å” value is on record as “The FMN is shown with yellow carbon atoms”.

B1: paAzoR1 (Pseudomonas aeruginosa PAO1) (protein)
chain: MSRILAVHASPRGERSQSRRLAEVFLAAYREAHPQARVARREVGRVPLPAVTEAFVAAAFHPQPEQRSLAMQADLALSDQLVGELFDSDLLVISTPMYNFSVPSGLKAWIDQIVRLGVTFDFVLDNGVAQYRPLLRGKRALIVTSRGGHGFGPGGENQAMNHADPWLRTALGFIGIDEVTVVAAEGEESGGRSFEDSCDEAEQRLLALARSA
With B1, the Km in the data set “purified protein” was 15.7 ± 1.6 µM.
